According to patent US20200305435A1, “SYNERGISTIC COMBINATION OF BIOCIDES” (LONZA LLC, priority 2016, published 2020):

Key:
Assay in all cases: Minimum inhibitory concentration, microtitre plate doubling dilutions
Type in all cases: cell-based
Escherichia coli = conditions: biocide alone, visual growth after 24 hours at 37° C., read-out: MIC versus organism E.c
Method: (§1) Bacteria were grown to stationary phase (18 h) in nutrient broth (approximately 10^9 organisms per ml). A 0.1% (v/v) inoculum was used to seed fresh medium and 100 μl of this was added to each well of a microtitre plate, except for the first well which contained 200 μl. Using doubling dilutions, the concentration of each antimicrobial was varied in each well along the ordinate axis. The presence or absence of growth was determined by visual inspection after 24 hours incubation at 37° C.

Ps.a = conditions: Pseudomonas aeruginosa; biocide alone; read-out: MIC versus organism Ps.a
Method: as §1

Staphylococcus aureus = conditions: biocide alone, visual growth after 24 hours at 37° C., read-out: MIC versus organism S.a
Method: as §1

Aspergillus brasiliensis = conditions: biocide alone, visual growth after 48 hours at 25° C., read-out: MIC versus organism A.b
Method: (§2) Fungi were grown on malt agar for 7 days at 25° C. to form a mycelial mat and the spore suspension harvested using 10 ml physiological saline (0.85% (w/v) NaCl). This was used as an inoculum as above. The presence or absence of growth was determined by visual inspection after 48 hours incubation at 25° C.

C. albicans = conditions: Candida albicans; biocide alone; read-out: MIC versus organism C.a
Method: as §2

`N=C(NCCCCCCNC(=N)NC(=N)Nc1ccc(Cl)cc1)NC(=N)Nc1ccc(Cl)cc1` [Spectradyne, Chlorhexidine gluconate] was tested, and the MIC (Escherichia coli) was 2 µg/mL, the MIC (Ps.a) was 4 µg/mL and the MIC (Staphylococcus aureus) was 1 µg/mL. For the same compound, the MIC (Aspergillus brasiliensis) was 62.5 µg/mL and the MIC (C. albicans) was 16 µg/mL.
